Measured values from US20240197719A1 (priority 2018, published 2024).

What was measured:
[1] = in vivo; cited from earlier work
[2] = in vivo, iv; cited from earlier work
[3] = in vivo

Row | SMILES | incidence of adverse events [1] | incidence of common adverse reactions [1] | reported half-life [2] [h] | AUC [3]
1 | C=C1CC[C@@]2(O)[C@H]3Cc4ccc(O)c5c4[C@@]2(CCN3CC2CC2)[C@H]1O5 [Nalmefene, 17-cyclopropylmethyl-4,5α-epoxy-6-methylenemorphinan-3,14-diol] | less than 1% | greater than 1% | 8 to 10.8 | 
2 | O=C1CC[C@@]2(O)[C@H]3Cc4ccc(O)c5c4[C@@]2(CCN3CC2CC2)[C@H]1O5 [naltrexone] |  |  |  | increased significantly
